“Also recorded” adds a separate entry of the source.
Legend:
[1] = tested on: rodent; parameters: method as in PMID 17625813; details: rodent antinociceptive assays; cited from earlier work
[2] = biological target: T1, human δ-opioid receptor (OPRD1) (Homo sapiens, UniProt P41143); experiment: Forskolin-induced cAMP accumulation assay, DOR agonist; details: for Emax: read-out: DOR Agonist %Emax ± SEM, cAMP assay
[3] = biological target: T2, human µ-opioid receptor β-arrestin2 (Homo sapiens, UniProt P35372); experiment: cell-based; details: for Emax: read-out: MOR β-Arrestin Recruitment %Emax ± SEM
T2 construct: EFC (enzyme fragment complementation) fragment; host or cells: PathHunter CHO-K1

[4] = tested on: squirrel monkeys (Saimiri sciureus); experiment: Squirrel monkey ventilation (whole-body plethysmograph, air vs 5% CO2); format: in vivo; details: for respiratory depressant effects (ventilatory ratio: minute volumes in 5% CO2 vs room air): cumulative dosing, result in words
Description: These experiments were approved under IACUC protocol #2015N000165.
Ventilation measures were assessed as described previously. Briefly, squirrel monkeys were acclimated to a customized acrylic chamber (10′′d × 10′′w × 10′′h) that served as a whole-body plethysmograph (EMKA Technologies, Montreal, PQ, Canada). Gas (either air or a 5% CO2 in air mixture) was introduced to and extracted from the chamber at a constant flow rate of 5 L/min. Experimental sessions consisted of 4–6 consecutive 30 min cycles, each comprising a 20 min exposure to air followed by a 10 min exposure to 5% CO2. Drug effects were determined using cumulative dosing procedures, and injections were administered following each exposure to 5% CO2. Respiratory rate and tidal volume (mL/breath) were recorded over 1 min periods and were multiplied to provide minute volumes. Data from the last three minutes of each exposure to air or CO2 were averaged and used for analysis of drug effects on ventilation.
(§1) All statistical analyses and graphic representations were completed with GraphPad Prism version 9.3.0 (GraphPad Software, San Diego, CA, USA) using log-transformed values of doses. Group means ± SEM tail withdrawal latencies (in sec) and minute volume ratios are plotted as a function of drug dose. Data were analyzed using one-way ANOVA with significance set at p < 0.05, followed by Dunnett’s multiple comparison test.

[5] = tested on: squirrel monkeys (Saimiri sciureus); experiment: Warm-water tail withdrawal in squirrel monkeys; format: in vivo; details: 52 °C water, cumulative dosing, n = 3 to 5
Description: Male squirrel monkeys (Saimiri sciureus) were housed in a climate-controlled vivarium with a 12 h light/dark cycle (7 a.m.–7 p.m.) in the McLean Hospital Animal Care Facility (licensed by the U.S. Department of Agriculture and compliant with guidelines provided by the Committee on Care and Use of Laboratory Animals of the Institute of Laboratory Animals Resources, Commission on Life Sciences, National Research Council; 2011). These experiments were approved under IACUC protocol #2015N000165.
Tail withdrawal latencies were assessed as described previously. Briefly, monkeys were seated in customized Plexiglas chairs that allowed their tails to hang freely. Tail withdrawal latencies were measured by immersing the subject’s tail in water held at 35 °C or 52 °C (temperatures were presented in a randomized order during successive test components). After obtaining a baseline tail withdrawal latency, complete dose response curves were generated in each subject using standard cumulative dosing procedures. Briefly, every 15 min after an injection, tail withdrawal latencies at each temperature were redetermined and subjects were injected with the next dose, such that the total (cumulative) dose was increased by ½ log10 units in each successive cycle. This procedure was repeated until either (a) the tail withdrawal latency from 52 °C water reached the maximum allowable latency (10 s), or (b) tail withdrawal latency no longer increased with increases in dose of the test drug.
as §1

[6] = biological target: T1, human δ-opioid receptor (OPRD1); experiment: Forskolin-induced cAMP accumulation assay, DOR antagonist; details: for DOR Antagonist %Imax ± SEM: Imax normalized to naltrexone
[7] = normalized to the forskolin control

T1 sequence (P41143 whole entry): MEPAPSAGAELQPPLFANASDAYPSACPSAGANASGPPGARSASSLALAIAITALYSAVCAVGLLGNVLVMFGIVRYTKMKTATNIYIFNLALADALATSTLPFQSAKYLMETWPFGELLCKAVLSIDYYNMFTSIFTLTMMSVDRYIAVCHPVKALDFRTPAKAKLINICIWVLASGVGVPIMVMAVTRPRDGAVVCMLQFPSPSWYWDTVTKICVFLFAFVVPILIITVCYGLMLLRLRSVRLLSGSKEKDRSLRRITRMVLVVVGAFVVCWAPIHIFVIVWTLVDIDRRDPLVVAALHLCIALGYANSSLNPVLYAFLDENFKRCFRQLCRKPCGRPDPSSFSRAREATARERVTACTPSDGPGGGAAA
T2 sequence (P35372 whole entry, the tested form may be a part): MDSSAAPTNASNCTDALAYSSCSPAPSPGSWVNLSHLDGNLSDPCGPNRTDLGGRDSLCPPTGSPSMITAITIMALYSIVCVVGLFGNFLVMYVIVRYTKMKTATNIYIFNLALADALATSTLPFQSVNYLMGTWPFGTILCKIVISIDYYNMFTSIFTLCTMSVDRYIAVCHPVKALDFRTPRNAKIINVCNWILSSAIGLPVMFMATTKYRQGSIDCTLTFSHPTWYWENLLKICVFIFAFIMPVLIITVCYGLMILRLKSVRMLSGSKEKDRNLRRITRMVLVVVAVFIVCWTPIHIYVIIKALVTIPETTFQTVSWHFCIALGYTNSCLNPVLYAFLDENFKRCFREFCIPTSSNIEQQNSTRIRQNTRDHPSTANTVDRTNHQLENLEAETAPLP

Structure (SMILES)	times more potent than morphine [1] [times]	EC50 [2] [nM]	Emax [2, 7] [%]	Bias Factor [3]	EC50 [3] [nM]	Emax [3] [%]	respiratory depressant effects (ventilatory ratio: minute volumes in 5% CO2 vs room air) [4]	ventilatory ratio reached with increasing dose ([4]; ratio of minute volumes in 5% CO2 and room air)	antinociceptive effects (tail withdrawal latency) [5]	DOR Agonist %Emax ± SEM ([2]; cAMP assay, normalized to the forskolin control) [%]	IC50 [6] [nM]	DOR Antagonist %Imax ± SEM ([6]; cAMP assay) [%]	DOR Antagonist IC50 ± SEM (nM) ([6]; cAMP assay, versus EC50 of SNC80)	DOR Agonist EC50 ± SEM (nM) ([2]; inhibition of forskolin-induced cAMP accumulation, CHO-K1 cells)
Oc1cccc([C@]23CCC[C@H]([C@H]2O)N(CCc2ccccc2)CC3)c1 [Compound 2]	~500													
OC[C@H]1[C@H]2CCC[C@]1(c1cccc(O)c1)CCN2CCc1ccccc1 [Compound 11, 3-((1R,5S,9R)-9-(Hydroxymethyl)-2-phenethyl-2-azabicyclo[3.3.1]nonan-5-yl)phenol]		8.5 ± 3.5	35	13.4	187	2.7								
OCC[C@H]1[C@@H]2CCC[C@@]1(c1cccc(O)c1)CCN2CCc1ccccc1 [Compound 21, 3-((1S,5R,9R)-9-(2-Hydroxyethyl)-2-phenethyl-2-azabicyclo[3.3.1]nonan-5-yl)phenol]		13 ± 3	38		> 50000	0	reduced the ability of 5% CO2 to stimulate increases in ventilation	above 2	significantly increased tail withdrawal latency; also recorded: full antinociceptive effects in three of four subjects	39 ± 3				
OC[C@H]1[C@@H]2CCC[C@@]1(c1cccc(O)c1)CCN2CCc1ccccc1 [Compound 15, 3-((1S,5R,9R)-9-(Hydroxymethyl)-2-phenethyl-2-azabicyclo[3.3.1]nonan-5-yl)phenol]		0.6 ± 0.3	17		> 50000	0	limited respiratory depressant effects		did not significantly increase tail withdrawal latency		336 ± 139	109 ± 8		
CN1CC[C@]23c4c5ccc(O)c4O[C@H]2[C@@H](O)C=C[C@H]3[C@H]1C5 [Morphine, reference compound]									significantly increased tail withdrawal latency					
OCCC[C@H]1[C@@H]2CCC[C@@]1(c1cccc(O)c1)CCN2CCc1ccccc1 [Compound 36]		102 ± 16	41		> 50000	0	limited respiratory depressant effects		did not significantly increase tail withdrawal latency					
OCCC[C@H]1[C@H]2CCC[C@]1(c1cccc(O)c1)CCN2CCc1ccccc1 [Compound 34, 3-((1R,5S,9R)-9-(3-Hydroxypropyl)-2-phenethyl-2-azabicyclo[3.3.1]nonan-5-yl)phenol]		> 10000		14.0	34	3.1					41 ± 5	111 ± 4	weak DOR antagonist activity	no DOR agonist activity
COC[C@H]1[C@H]2CCC[C@]1(c1cccc(O)c1)CCN2CCc1ccccc1 [Compound 41, 3-((1R,5S,9R)-9-(Methoxymethyl)-2-phenethyl-2-azabicyclo[3.3.1]nonan-5-yl)phenol]		2.4 ± 1.6	20	6.4	29	2.8					54 ± 14	80 ± 8		
